Source: US6445486B1, “Electroactive materials and beneficial agents having a solubilizing moiety” (Gentex Corporation, priority 1999, dated 2002)
≈ marks a conversion by molar mass, not a printed value.

Experiment: Solubility at saturation in the solvent of interest, calculated from UV-VIS spectra of saturated solutions
Conditions: propylene carbonate, organic solvent or mixture, thermodynamic from solid

Molecule	solubility
CCn1c(=NN=c2sc3ccccc3n2CC)sc2ccccc21 [N,N′-Bis-(3-ethyl-3H-benzothiazol-2-ylidene)-hydrazine, reference compound]	12 mM (≈ 4250 µg/mL)
c1ccc(N2c3ccccc3N(CCN3CCCCC3)c3ccccc32)cc1 [5-Phenyl-10-(2-piperidin-1-yl-ethyl)-5,10-dihydrophenazine, reference compound]	5 mM (≈ 1850 µg/mL)
CC[N+](CC)(CC)CCCCn1c(=NN=c2sc3ccccc3n2C)sc2ccccc21.F[B-](F)(F)F [triethyl-(4-{2-[(3-methyl-3H-benzothiazol-2-ylidene)-hydrazono]-benzothiazol-3-yl}-butyl)-ammonium tetrafluoroborate]	47 mM
CN1c2ccccc2N(C)c2ccccc21 [5,10-Dihydro-5,10-dimethylphenazine, reference compound]	110 mM (≈ 23100 µg/mL)
Cc1ccc2c(c1)N(C)c1ccc(C)cc1N2C [2,5,7,10-Tetramethyl-5,10-dihydrophenazine, reference compound]	55 mM (≈ 13100 µg/mL)

Same assay, conditions: saturated solution in propylene carbonate; ambient temperature

Molecule	Solubility in propylene carbonate
CC[N+](CC)(CC)CCN1c2ccccc2N(CC[N+](CC)(CC)CC)c2ccccc21.F[B-](F)(F)F.F[B-](F)(F)F [5,10-Bis-2-(triethylammonium)ethylphenazine [BF4]2]	200 mM
1-Triethylammonium-6-(tetra-t-butylferrocenyl)hexane BF4	514.4 mM
CC[N+](CC)(CC)CCN1c2ccc(C)cc2N(CC[N+](CC)(CC)CC)c2ccc(C)cc21.F[B-](F)(F)F.F[B-](F)(F)F [2,7-Dimethyl-5,10-bis-2-(triethylammonium)ethylphenazine [BF4]2]	250 mM
F[B-](F)(F)F.F[B-](F)(F)F.N#Cc1ccc(-[n+]2ccc(-c3cc[n+](CCC[c-]4cccc4)cc3)cc2)cc1.[Fe+2].c1cc[cH-]c1 [Ferrocenepropyl-p-cyanophenylviologen tetrafluoroborate]	276.0 mM

Experiment: physchem
Conditions: organic solvent or mixture, thermodynamic from solid

Molecule	solubility
C[N+]1(CCN2c3ccccc3N(c3ccccc3)c3ccccc32)CCCCC1.F[P-](F)(F)(F)(F)F [1-Methyl-1-[2-(10-phenyl-10H-phenazin-5-yl)-ethyl]-piperidinium hexafluorophosphate]	500 mM
